Several values for one entry are separate records, joined by “and”; a condition that tells them apart may be missing. Equal values may be shown once. Toxic doses and inconclusive results are not listed.

The results in this text go back to PubChem BioAssay AID328 (DTP/NCI, 2004).

This test relates to BDF1 mice, P388 leukemia ip, median survival T/C. As to the kind of experiment: NCI In Vivo Anticancer Drug Screen. Data for tumor model P388 Leukemia (intraperitoneal) in B6D2F1 (BDF1) mice. The following applies: endpoint: median survival time, higher = longer survival. In outline: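 Transplantable tumour in mice; compound vs vehicle dosing; survival scored; ratio of treated to control reported.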

Where [1] appears, read: dose: 100.0 mg/kg/injection, schedule: Q04DX003 (ip), vehicle: saline with Tween-80.
Setting [2] is: dose: 200.0 mg/kg/injection, schedule: Q04DX003 (ip), vehicle: saline with Tween-80.
The mark [3] stands for this setting: dose: 12.5 mg/kg/injection, schedule: Q01DX009 (ip), vehicle: saline with Tween-80.
The mark [4] stands for this setting: dose: 25.0 mg/kg/injection, schedule: Q01DX009 (ip), vehicle: saline with Tween-80.
The mark [5] stands for this setting: dose: 50.0 mg/kg/injection, schedule: Q04DX003 (ip), vehicle: saline with Tween-80.
The mark [6] stands for this setting: dose: 50.0 mg/kg/injection, schedule: Q01DX009 (ip), vehicle: saline with Tween-80.
Setting [7] is: dose: 100.0 mg/kg/injection, schedule: Q01DX009 (ip), vehicle: saline with Tween-80.
The mark [8] stands for this setting: dose: 200.0 mg/kg/injection, schedule: Q01DX009 (ip), vehicle: saline with Tween-80.
Where [9] appears, read: dose: 400.0 mg/kg/injection, schedule: Q04DX003 (ip), vehicle: saline with Tween-80.

For the compound `COc1ccc2c(c1OC)C1(CCN(C)C)CC(=O)CCC1C=C2` (stereo unspecified), the T/C reads like this: (dose: 6.25 mg/kg/injection, schedule: Q01DX009 (ip), vehicle: Klucel (hydroxypropylcellulose) (HPC)) 90 % of control; (dose: 12.5 mg/kg/injection, schedule: Q01DX009 (ip), vehicle: Klucel (hydroxypropylcellulose) (HPC)) 105 % of control; (dose: 12.5 mg/kg/injection, schedule: Q04DX003 (ip), vehicle: Klucel (hydroxypropylcellulose) (HPC)) 86 % of control; (dose: 25.0 mg/kg/injection, schedule: Q01DX009 (ip), vehicle: Klucel (hydroxypropylcellulose) (HPC)) 100 % of control; (dose: 25.0 mg/kg/injection, schedule: Q04DX003 (ip), vehicle: Klucel (hydroxypropylcellulose) (HPC)) 108 % of control; (dose: 35.0 mg/kg/injection, schedule: Q01DX009 (ip), vehicle: Klucel (hydroxypropylcellulose) (HPC)) 113 % of control. Moreover, the T/C is, setting by setting: (dose: 50.0 mg/kg/injection, schedule: Q04DX003 (ip), vehicle: Klucel (hydroxypropylcellulose) (HPC)) 100 % of control; (dose: 55.0 mg/kg/injection, schedule: Q01DX009 (ip), vehicle: Klucel (hydroxypropylcellulose) (HPC)) 118 % of control; (dose: 80.0 mg/kg/injection, schedule: Q01DX009 (ip), vehicle: Klucel (hydroxypropylcellulose) (HPC)) 118 % of control; (dose: 100.0 mg/kg/injection, schedule: Q04DX003 (ip), vehicle: Klucel (hydroxypropylcellulose) (HPC)) 95 % of control; (dose: 120.0 mg/kg/injection, schedule: Q01DX009 (ip), vehicle: Klucel (hydroxypropylcellulose) (HPC)) 100 % of control; (dose: 180.0 mg/kg/injection, schedule: Q01DX009 (ip), vehicle: Klucel (hydroxypropylcellulose) (HPC)) 108 % of control.
As to `CC12NC(=O)NC1(C)NC(=O)N2` (stereo unspecified), the T/C was 100 % of control under setting [1] and 100 % of control under setting [2].
As to `Cc1ccc2c(Nc3ccc(NS(C)(=O)=O)cc3)c3ccccc3nc2c1C`, the T/C is 156 % of control (dose: 1.78 mg/kg/injection, schedule: Q01DX009 (ip), vehicle: saline with Tween-80); 167 % of control (dose: 4.0 mg/kg/injection, schedule: Q01DX009 (ip), vehicle: saline with Tween-80); 196 % of control (dose: 5.56 mg/kg/injection, schedule: Q01DX009 (ip), vehicle: saline with Tween-80); 187 % of control (dose: 6.0 mg/kg/injection, schedule: Q01DX009 (ip), vehicle: saline with Tween-80); 185 % of control (dose: 6.25 mg/kg/injection, schedule: Q01DX009 (ip), vehicle: saline with Tween-80); 186 % of control (dose: 8.33 mg/kg/injection, schedule: Q01DX009 (ip), vehicle: saline with Tween-80). Further, the T/C (dose: 8.8 mg/kg/injection, schedule: Q04DX003 (ip), vehicle: saline with Tween-80) is 118 % of control; the T/C under setting [3] was 233 % of control and 247 % of control; the T/C (dose: 13.2 mg/kg/injection, schedule: Q04DX003 (ip), vehicle: saline with Tween-80) is 154 % of control; the T/C (dose: 18.7 mg/kg/injection, schedule: Q01DX009 (ip), vehicle: saline with Tween-80) is 288 % of control; the T/C (dose: 20.0 mg/kg/injection, schedule: Q01DX009 (ip), vehicle: other) is 219 % of control; the T/C (dose: 20.0 mg/kg/injection, schedule: Q04DX003 (ip), vehicle: saline with Tween-80) was 168 % of control. Moreover, the T/C reads like this: (dose: 22.0 mg/kg/injection, schedule: Q04DX003 (ip), vehicle: saline with Tween-80) 186 % of control; under setting [4], 114 % of control; (dose: 30.0 mg/kg/injection, schedule: Q04DX003 (ip), vehicle: saline with Tween-80) 177 % of control; (dose: 33.0 mg/kg/injection, schedule: Q04DX003 (ip), vehicle: saline with Tween-80) 227 % of control; under setting [5], 231 % of control; (dose: 75.0 mg/kg/injection, schedule: Q04DX003 (ip), vehicle: saline with Tween-80) 218 % of control. Also, the T/C reads like this: under setting [1], 259 % of control; under setting [2], 272 % of control.
As for `NCCS(=O)(=O)O`, the T/C (dose: 12.5 mg/kg/injection, schedule: Q01DX009 (ip), vehicle: saline) was 90 % of control and 100 % of control; the T/C (dose: 17.5 mg/kg/injection, schedule: Q01DX009 (ip), vehicle: saline) is 123 % of control; the T/C (dose: 25.0 mg/kg/injection, schedule: Q01DX009 (ip), vehicle: saline) was 110 % of control; the T/C (dose: 35.0 mg/kg/injection, schedule: Q01DX009 (ip), vehicle: saline) is 123 % of control; the T/C (dose: 50.0 mg/kg/injection, schedule: Q01DX009 (ip), vehicle: saline) was 100 % of control (2×) and 113 % of control; the T/C (dose: 70.0 mg/kg/injection, schedule: Q01DX009 (ip), vehicle: saline) was 107 % of control. The T/C (dose: 100.0 mg/kg/injection, schedule: Q01DX009 (ip), vehicle: saline) is 86 % of control and 94 % of control; the T/C (dose: 200.0 mg/kg/injection, schedule: Q01DX009 (ip), vehicle: saline) is 100 % of control; the T/C (dose: 400.0 mg/kg/injection, schedule: Q01DX009 (ip), vehicle: saline) is 95 % of control and 105 % of control.
`O=S(=O)(CCl)OCCCCOS(=O)(=O)CCl`: the T/C (dose: 66.0 mg/kg/injection, schedule: Q01DX009 (ip), vehicle: saline) is 104 % of control.
Regarding `CCCCCCCC[N+](CC)(CC)CCOC(=O)C(C1CCCC1)C1CCCC1`, the T/C runs as follows: (dose: 0.9 mg/kg/injection, schedule: Q04DX003 (ip), vehicle: saline) 90 % of control; (dose: 1.32 mg/kg/injection, schedule: Q01DX001 (ip), vehicle: saline) 87 % of control; (dose: 1.8 mg/kg/injection, schedule: Q04DX003 (ip), vehicle: saline) 109 % of control; (dose: 2.65 mg/kg/injection, schedule: Q01DX001 (ip), vehicle: saline) 100 % of control; (dose: 3.6 mg/kg/injection, schedule: Q01DX009 (ip), vehicle: saline) 110 % of control; (dose: 3.6 mg/kg/injection, schedule: Q04DX003 (ip), vehicle: saline) 109 % of control. Further, the T/C was 91 % of control (dose: 5.3 mg/kg/injection, schedule: Q01DX001 (ip), vehicle: saline) and 90 % of control (dose: 5.3 mg/kg/injection, schedule: Q04DX003 (ip), vehicle: saline).
For `CC12OC1C(=O)c1ccccc1C2=O` (stereo unspecified), the T/C was 87 % of control (dose: 0.75 mg/kg/injection, schedule: Q01DX009 (ip), vehicle: Klucel (hydroxypropylcellulose) (HPC)); 100 % of control (dose: 1.5 mg/kg/injection, schedule: Q01DX009 (ip), vehicle: Klucel (hydroxypropylcellulose) (HPC)); 89 % of control (dose: 2.5 mg/kg/injection, schedule: Q01DX009 (ip), vehicle: Klucel (hydroxypropylcellulose) (HPC)); 95 % of control (dose: 3.0 mg/kg/injection, schedule: Q01DX009 (ip), vehicle: Klucel (hydroxypropylcellulose) (HPC)); 92 % of control (dose: 5.0 mg/kg/injection, schedule: Q04DX003 (ip), vehicle: Klucel (hydroxypropylcellulose) (HPC)); 92 % of control (dose: 10.0 mg/kg/injection, schedule: Q04DX003 (ip), vehicle: Klucel (hydroxypropylcellulose) (HPC)).
With `NC1=NS(=O)(=O)N=C(N)C1=NNc1cccc(Cl)c1`, the T/C by setting is: under setting [6], 94 % of control; under setting [7], 103 % of control; under setting [8], 92 % of control.
On to `O=C(O)c1cccc(S(=O)(=O)N(CCO)CCO)c1`, for which the T/C is, setting by setting: under setting [5], 100 % of control; under setting [1], 90 % of control; under setting [2], 95 % of control.
Consider `COc1ccc(-c2c(C)c(C)[nH]c(=O)c2C(=O)O)c(OCc2ccccc2)c1OC`, for which the T/C under setting [7] is 99 % of control; the T/C under setting [1] was 110 % of control; the T/C under setting [8] was 105 % of control; the T/C under setting [2] is 103 % of control; the T/C (dose: 400.0 mg/kg/injection, schedule: Q01DX009 (ip), vehicle: saline with Tween-80) is 103 % of control; the T/C under setting [9] is 117 % of control.
Regarding `N#CC(CC(=O)OCc1ccccc1)NC(=O)OCc1ccccc1` (stereo unspecified), the T/C under setting [1] is 95 % of control, the T/C under setting [2] was 90 % of control and the T/C under setting [9] was 100 % of control.
Take `COc1ccc(C(=O)C(C)Br)c(OCc2ccccc2)c1OC` (stereo unspecified): the T/C is 100 % of control under setting [3]; 95 % of control under setting [4]; 100 % of control under setting [6]; 90 % of control under setting [7]; 95 % of control under setting [1]; 95 % of control under setting [8]. Further, the T/C was 114 % of control under setting [2] and 104 % of control under setting [9].
